Experimental data published in patent US8686044B2, “Amide derivative, pest control agent containing the amide derivative, and use of the amide derivative” (Mitsui Chemicals Agro, Inc., priority 2008, dated 2014).

What was measured:
Format in all cases: in vivo
Plutella xylostella = assay: Pesticidal test against Plutella xylostella (cabbage leaf dip); conditions: foliar, 144 h, 2-stage larvae, examined after 6 days, 25° C., read-out: pesticidal rate; for pest or weed control at 1 ppm: concentration 1 ppm; for pest or weed control at 10 ppm: concentration 10 ppm
Summary of the method: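 Cabbage leaf pieces dipped 30 s in test solution at a predetermined concentration, air-dried, then offered to 2nd-instar larvae, five per group in duplicate. Held at 25° C; living and dead larvae counted after 6 days.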

Laodelphax striatellus = assay: Pesticidal test against Laodelphax striatellus (rice seedling spray); conditions: 144 h, concentration 100 ppm, 3-stage larvae, examined after 6 days, 25° C., read-out: pesticidal rate
Experimental: Pesticidal Test against Laodelphax striatellus
2.5 ml of an acetone solution in which a test compound had been prepared at a predetermined concentration was sprayed on rice seedlings, air-dried, and then put into a glass tube having a diameter of 3 cm and a height of 13 cm, having water therein, and 3-stage larvae of Laodelphax striatellus were released and the tube was capped. They were left to stand in a thermostatic chamber at 25° C., and the numbers of the living pests and the dead pests were examined after 6 days. The test was carried out with ten larvae per group in two replicates.

Spodoptera litura = assay: Pesticidal test against Spodoptera litura (cabbage leaf dip); conditions: foliar, 144 h, 2-stage larvae, examined after 6 days, 25° C., read-out: pesticidal rate; for pest or weed control at 1 ppm: concentration 1 ppm
Summary of the method: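 Cabbage leaf pieces dipped 30 seconds in compound solution at a predetermined concentration and air-dried, then offered to second-stage larvae, five per group in two replicates. Held at 25° C. Living and dead larvae counted after 6 days.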

CN(C(=O)c1cccnc1Cl)c1cccc(C(=O)Nc2c(Br)cc(C(F)(C(F)(F)F)C(F)(F)F)cc2C(F)(F)F)c1 [7-304]
≥ 70%: pest or weed control at 1 ppm (Plutella xylostella) | pest or weed control at 100 ppm (Laodelphax striatellus) | pest or weed control at 1 ppm (Spodoptera litura)

CN(C(=O)c1ccc(Cl)nc1)c1cccc(C(=O)Nc2c(Br)cc(C(F)(C(F)(F)F)C(F)(F)F)cc2C(F)(F)F)c1 [7-311]
≥ 70%: pest or weed control at 1 ppm (Plutella xylostella) | pest or weed control at 100 ppm (Laodelphax striatellus) | pest or weed control at 1 ppm (Spodoptera litura)

CN(C(=O)c1ccc(C#N)nc1)c1cccc(C(=O)Nc2c(Br)cc(C(F)(C(F)(F)F)C(F)(F)F)cc2C(F)(F)F)c1 [7-316]
≥ 70%: pest or weed control at 10 ppm (Plutella xylostella) | pest or weed control at 100 ppm (Laodelphax striatellus) | pest or weed control at 10 ppm (Spodoptera litura; concentration 10 ppm)

CN(C(=O)c1cccc(F)c1)c1cccc(C(=O)Nc2c(I)cc(C(F)(C(F)(F)F)C(F)(F)F)cc2C(F)(F)F)c1 [7-426]
≥ 70%: pest or weed control at 1 ppm (Plutella xylostella) | pest or weed control at 100 ppm (Laodelphax striatellus) | pest or weed control at 1 ppm (Spodoptera litura)

CN(C(=O)c1ccc(F)cc1)c1cccc(C(=O)Nc2c(I)cc(C(F)(C(F)(F)F)C(F)(F)F)cc2C(F)(F)F)c1 [7-427]
≥ 70%: pest or weed control at 1 ppm (Plutella xylostella) | pest or weed control at 100 ppm (Laodelphax striatellus) | pest or weed control at 1 ppm (Spodoptera litura)

CN(C(=O)c1ccc(C#N)cc1)c1cccc(C(=O)Nc2c(I)cc(C(F)(C(F)(F)F)C(F)(F)F)cc2C(F)(F)F)c1 [7-445]
≥ 70%: pest or weed control at 1 ppm (Plutella xylostella) | pest or weed control at 100 ppm (Laodelphax striatellus) | pest or weed control at 1 ppm (Spodoptera litura)

CN(C(=O)c1cccnc1Cl)c1cccc(C(=O)Nc2c(I)cc(C(F)(C(F)(F)F)C(F)(F)F)cc2C(F)(F)F)c1 [7-460]
≥ 70%: pest or weed control at 1 ppm (Plutella xylostella) | pest or weed control at 100 ppm (Laodelphax striatellus) | pest or weed control at 1 ppm (Spodoptera litura)

CN(C(=O)c1ccc(Cl)nc1)c1cccc(C(=O)Nc2c(I)cc(C(F)(C(F)(F)F)C(F)(F)F)cc2C(F)(F)F)c1 [7-467]
≥ 70%: pest or weed control at 1 ppm (Plutella xylostella) | pest or weed control at 100 ppm (Laodelphax striatellus) | pest or weed control at 1 ppm (Spodoptera litura)

CN(C(=O)c1ccc(C#N)cc1)c1cccc(C(=O)Nc2c(C(F)(F)F)cc(C(F)(C(F)(F)F)C(F)(F)F)cc2C(F)(F)F)c1 [7-825]
≥ 70%: pest or weed control at 10 ppm (Plutella xylostella) | pest or weed control at 100 ppm (Laodelphax striatellus) | pest or weed control at 1 ppm (Spodoptera litura)

CN(C(=O)c1cccnc1Cl)c1cccc(C(=O)Nc2c(C(F)(F)F)cc(C(F)(C(F)(F)F)C(F)(F)F)cc2C(F)(F)F)c1 [7-840]
≥ 70%: pest or weed control at 1 ppm (Plutella xylostella) | pest or weed control at 100 ppm (Laodelphax striatellus) | pest or weed control at 1 ppm (Spodoptera litura)

CN(C(=O)c1ccccc1)c1cccc(C(=O)Nc2c(Cl)cc(C(F)(C(F)(F)F)C(F)(F)F)cc2Cl)c1F [7-948]
≥ 70%: pest or weed control at 1 ppm (Plutella xylostella) | pest or weed control at 100 ppm (Laodelphax striatellus) | pest or weed control at 1 ppm (Spodoptera litura)

CN(C(=O)c1cccnc1Cl)c1cccc(C(=O)Nc2c(Cl)cc(C(F)(C(F)(F)F)C(F)(F)F)cc2Cl)c1F [7-984]
≥ 70%: pest or weed control at 1 ppm (Plutella xylostella) | pest or weed control at 100 ppm (Laodelphax striatellus) | pest or weed control at 1 ppm (Spodoptera litura)

CN(C(=O)c1cccnc1Cl)c1cccc(C(=O)Nc2c(Br)cc(C(F)(C(F)(F)F)C(F)(F)F)cc2Br)c1F [7-1140]
≥ 70%: pest or weed control at 1 ppm (Plutella xylostella) | pest or weed control at 100 ppm (Laodelphax striatellus) | pest or weed control at 1 ppm (Spodoptera litura)

CN(C(=O)c1ccc(Cl)nc1)c1cccc(C(=O)Nc2c(Br)cc(C(F)(C(F)(F)F)C(F)(F)F)cc2Br)c1F [7-1147]
≥ 70%: pest or weed control at 1 ppm (Plutella xylostella) | pest or weed control at 100 ppm (Laodelphax striatellus) | pest or weed control at 1 ppm (Spodoptera litura)

CN(C(=O)c1ccccc1)c1cccc(C(=O)Nc2c(Br)cc(C(F)(C(F)(F)F)C(F)(F)C(F)(F)F)cc2Br)c1F (stereo not drawn) [7-1182, N-(2,6-dibromo-4-(perfluorobutan-2-yl)phenyl)-2-fluoro-3-(N-methylbenzamide)benzamide]
≥ 70%: pest or weed control at 1 ppm (Plutella xylostella) | pest or weed control at 100 ppm (Laodelphax striatellus) | pest or weed control at 1 ppm (Spodoptera litura)

CN(C(=O)c1ccccc1F)c1cccc(C(=O)Nc2c(Br)cc(C(F)(C(F)(F)F)C(F)(F)C(F)(F)F)cc2Br)c1F (stereo not drawn) [7-1183]
≥ 70%: pest or weed control at 1 ppm (Plutella xylostella) | pest or weed control at 100 ppm (Laodelphax striatellus) | pest or weed control at 1 ppm (Spodoptera litura)

CN(C(=O)c1cccc(F)c1)c1cccc(C(=O)Nc2c(Br)cc(C(F)(C(F)(F)F)C(F)(F)C(F)(F)F)cc2Br)c1F (stereo not drawn) [7-1184]
≥ 70%: pest or weed control at 1 ppm (Plutella xylostella) | pest or weed control at 100 ppm (Laodelphax striatellus) | pest or weed control at 1 ppm (Spodoptera litura)

CN(C(=O)c1ccc(F)cc1)c1cccc(C(=O)Nc2c(Br)cc(C(F)(C(F)(F)F)C(F)(F)C(F)(F)F)cc2Br)c1F (stereo not drawn) [7-1185]
≥ 70%: pest or weed control at 1 ppm (Plutella xylostella) | pest or weed control at 100 ppm (Laodelphax striatellus) | pest or weed control at 1 ppm (Spodoptera litura)

CN(C(=O)c1ccc(C#N)cc1)c1cccc(C(=O)Nc2c(Br)cc(C(F)(C(F)(F)F)C(F)(F)C(F)(F)F)cc2Br)c1F (stereo not drawn) [7-1203]
≥ 70%: pest or weed control at 1 ppm (Plutella xylostella) | pest or weed control at 100 ppm (Laodelphax striatellus) | pest or weed control at 1 ppm (Spodoptera litura)

CN(C(=O)c1c(F)cccc1F)c1cccc(C(=O)Nc2c(Br)cc(C(F)(C(F)(F)F)C(F)(F)C(F)(F)F)cc2Br)c1F (stereo not drawn) [7-1204]
≥ 70%: pest or weed control at 1 ppm (Plutella xylostella) | pest or weed control at 100 ppm (Laodelphax striatellus) | pest or weed control at 1 ppm (Spodoptera litura)

CN(C(=O)c1cccnc1Cl)c1cccc(C(=O)Nc2c(Br)cc(C(F)(C(F)(F)F)C(F)(F)C(F)(F)F)cc2Br)c1F (stereo not drawn) [7-1218]
≥ 70%: pest or weed control at 1 ppm (Plutella xylostella) | pest or weed control at 100 ppm (Laodelphax striatellus) | pest or weed control at 1 ppm (Spodoptera litura)

CN(C(=O)c1ccc(Cl)nc1)c1cccc(C(=O)Nc2c(Br)cc(C(F)(C(F)(F)F)C(F)(F)C(F)(F)F)cc2Br)c1F (stereo not drawn) [7-1225]
≥ 70%: pest or weed control at 1 ppm (Plutella xylostella) | pest or weed control at 100 ppm (Laodelphax striatellus) | pest or weed control at 1 ppm (Spodoptera litura)

CN(C(=O)c1ccccc1F)c1cccc(C(=O)Nc2c(I)cc(C(F)(C(F)(F)F)C(F)(F)C(F)(F)F)cc2I)c1F (stereo not drawn) [7-1339]
≥ 70%: pest or weed control at 1 ppm (Plutella xylostella) | pest or weed control at 100 ppm (Laodelphax striatellus) | pest or weed control at 1 ppm (Spodoptera litura)

CN(C(=O)c1ccc(F)cc1)c1cccc(C(=O)Nc2c(I)cc(C(F)(C(F)(F)F)C(F)(F)C(F)(F)F)cc2I)c1F (stereo not drawn) [7-1341]
≥ 70%: pest or weed control at 1 ppm (Plutella xylostella) | pest or weed control at 100 ppm (Laodelphax striatellus) | pest or weed control at 1 ppm (Spodoptera litura)

CN(C(=O)c1cccnc1Cl)c1cccc(C(=O)Nc2c(I)cc(C(F)(C(F)(F)F)C(F)(F)C(F)(F)F)cc2I)c1F (stereo not drawn) [7-1374]
≥ 70%: pest or weed control at 1 ppm (Plutella xylostella) | pest or weed control at 100 ppm (Laodelphax striatellus) | pest or weed control at 1 ppm (Spodoptera litura)

CN(C(=O)c1cccnc1)c1cccc(C(=O)Nc2c(Br)cc(C(F)(C(F)(F)F)C(F)(F)F)cc2C(F)(F)F)c1F [7-1608]
≥ 70%: pest or weed control at 1 ppm (Plutella xylostella) | pest or weed control at 100 ppm (Laodelphax striatellus) | pest or weed control at 1 ppm (Spodoptera litura)

CN(C(=O)c1cccnc1Cl)c1cccc(C(=O)Nc2c(Br)cc(C(F)(C(F)(F)F)C(F)(F)F)cc2C(F)(F)F)c1F [7-1610]
≥ 70%: pest or weed control at 1 ppm (Plutella xylostella) | pest or weed control at 100 ppm (Laodelphax striatellus) | pest or weed control at 1 ppm (Spodoptera litura)

CN(C(=O)c1ccncc1)c1cccc(C(=O)Nc2c(Br)cc(C(F)(C(F)(F)F)C(F)(F)F)cc2C(F)(F)F)c1F [7-1639]
≥ 70%: pest or weed control at 1 ppm (Plutella xylostella) | pest or weed control at 100 ppm (Laodelphax striatellus) | pest or weed control at 1 ppm (Spodoptera litura)

CN(C(=O)c1cccc(C#N)c1)c1cccc(C(=O)Nc2c(Br)cc(C(F)(C(F)(F)F)C(F)(F)C(F)(F)F)cc2C(F)(F)F)c1F (stereo not drawn) [7-1672]
≥ 70%: pest or weed control at 1 ppm (Plutella xylostella) | pest or weed control at 100 ppm (Laodelphax striatellus) | pest or weed control at 1 ppm (Spodoptera litura)

CN(C(=O)c1ccc(C#N)cc1)c1cccc(C(=O)Nc2c(Br)cc(C(F)(C(F)(F)F)C(F)(F)C(F)(F)F)cc2C(F)(F)F)c1F (stereo not drawn) [7-1673]
≥ 70%: pest or weed control at 1 ppm (Plutella xylostella) | pest or weed control at 100 ppm (Laodelphax striatellus) | pest or weed control at 1 ppm (Spodoptera litura)

CN(C(=O)c1cccnc1Cl)c1cccc(C(=O)Nc2c(I)cc(C(F)(C(F)(F)F)C(F)(F)C(F)(F)F)cc2C(F)(F)F)c1F (stereo not drawn) [7-1844]
≥ 70%: pest or weed control at 1 ppm (Plutella xylostella) | pest or weed control at 100 ppm (Laodelphax striatellus) | pest or weed control at 1 ppm (Spodoptera litura)

CN(C(=O)c1ccccc1)c1cc(C(=O)Nc2c(Br)cc(C(F)(C(F)(F)F)C(F)(F)F)cc2C(F)(F)F)ccc1F [7-3348]
≥ 70%: pest or weed control at 1 ppm (Plutella xylostella) | pest or weed control at 100 ppm (Laodelphax striatellus) | pest or weed control at 1 ppm (Spodoptera litura)

CN(C(=O)c1ccc(C#N)cc1)c1cc(C(=O)Nc2c(Br)cc(C(F)(C(F)(F)F)C(F)(F)F)cc2C(F)(F)F)ccc1F [7-3369]
≥ 70%: pest or weed control at 1 ppm (Plutella xylostella) | pest or weed control at 100 ppm (Laodelphax striatellus) | pest or weed control at 1 ppm (Spodoptera litura)

CN(C(=O)c1ccccc1)c1cccc(C(=O)Nc2c(Br)cc(C(F)(C(F)(F)F)C(F)(F)F)cc2I)c1F [7-5902]
≥ 70%: pest or weed control at 1 ppm (Plutella xylostella) | pest or weed control at 100 ppm (Laodelphax striatellus) | pest or weed control at 1 ppm (Spodoptera litura)

CN(C(=O)c1cccnc1Cl)c1cccc(C(=O)Nc2c(Br)cc(C(F)(C(F)(F)F)C(F)(F)F)cc2I)c1F [7-5903]
≥ 70%: pest or weed control at 1 ppm (Plutella xylostella) | pest or weed control at 100 ppm (Laodelphax striatellus) | pest or weed control at 1 ppm (Spodoptera litura)

CN(C(=O)c1cccc(F)c1)c1cccc(C(=O)Nc2c(I)cc(C(F)(C(F)(F)F)C(F)(F)C(F)(F)F)cc2I)c1 (stereo not drawn) [7-5904]
≥ 70%: pest or weed control at 1 ppm (Plutella xylostella) | pest or weed control at 100 ppm (Laodelphax striatellus) | pest or weed control at 1 ppm (Spodoptera litura)

CN(C(=O)c1cccc(F)c1)c1cccc(C(=O)Nc2c(Br)cc(C(F)(C(F)(F)F)C(F)(F)C(F)(F)F)cc2Br)c1 (stereo not drawn) [7-5906]
≥ 70%: pest or weed control at 1 ppm (Plutella xylostella) | pest or weed control at 100 ppm (Laodelphax striatellus) | pest or weed control at 1 ppm (Spodoptera litura)

CN(C(=O)c1ccc(F)cc1)c1cccc(C(=O)Nc2c(Br)cc(C(F)(C(F)(F)F)C(F)(F)C(F)(F)F)cc2Br)c1 (stereo not drawn) [7-5907]
≥ 70%: pest or weed control at 1 ppm (Plutella xylostella) | pest or weed control at 100 ppm (Laodelphax striatellus) | pest or weed control at 1 ppm (Spodoptera litura)
